Biological target: T1, recombinant autotaxin (Homo sapiens, UniProt Q13822)
T1 construct: made in house; host or cells: Hi5 insect cells (baculovirus)
Assay: Autotaxin test (enzyme test), Amplex Red fluorescence with LPC substrate
Format: biochemical
Settings: autotaxin inhibition (enzyme test); for remaining activity at 10 µM: 10 μM compound, read-out: % Control at 10 μM
Method: Autotaxin Inhibition (Enzyme Test)
Autotaxin Test (Enzyme Test)
The autotaxin activity is measured indirectly using Amplex Red reagent. Amplex Red is measured here as fluorogenic indicator for the H2O2 formed. In detail, autotaxin converts the substrate lysophosphatidylcholine (LPC) into phosphocholine and lysophosphatidylic acid (LPA). After this reaction, the phosphocholine is reacted with alkaline phosphatase to give inorganic phosphate and choline. In the next step, choline is oxidised by choline oxidase to give betaine, with formation of H2O2. H2O2 reacts with Amplex Red reagent in the presence of peroxidase (horseradish peroxidase) in a 1:1 stoichiometry and forms the highly fluorescent resorufin. The fluorescence is measured in a reaction-dependent kinetic mode in order that fluorescent signals from possible other fluorescent substances which are not involved in the reaction can be corrected out.
3 μl of a standard solution or of the test substances (substances with the name A(n)) in individual concentrations dissolved in 20 mM Hepes pH 7.2 with a maximum of 11% of DMSO are pre-incubated together with 20 μl (19 ng) of highly purified recombinant autotaxin in test buffer in a black microtitre plate provided with 384 wells at 22° C. for 30 min. The reaction is then initiated by addition of 10 μl of L-α-lysophosphatidylcholine (LPC), where the final concentration of LPC is 75 μM. The mixture is incubated at 37° C. for 90 min. After the incubation, Amplex Red reagent, peroxidase (horseradish peroxidase) and choline oxidase is added, and the fluorescence is immediately measured at 612 nm with excitation of 485 nm in a “Tecan Ultra multimode” reader. The activity of autotaxin is calculated indirectly via detection of the H2O2 formed.
• Microtitre plate: PS microplate, 384 wells, small volume, black Corning, Cat#3677 • Protein: recombinant autotaxin (Baculovirale Hi5 Expression) • Substrate: L-α-lysophosphatidylcholine (chicken egg)); Avanti Polar Lipids #830071 P • Standard: C14 LPA, Avanti Polar Lipids, Cat#857120P • Detection reagent: Amplex Red reagent; Invitrogen #A12222; 5 mg dissolved in 1.923 ml of DMSO peroxidase type VI-A (horseradish) from Sigma #P6782; 5 mg dissolved in 7.45 ml of test buffer, choline oxidase; Sigma # C5896; 50 U dissolved in 2.47 ml of test buffer • Detection reagent mix: 1:50 dilution of detection reagent in test buffer • Test buffer: 10 mM Tris HCl, Merck, Cat #1.08219, pH 8, 1 mM; CaCl2×2 H2O, Merck #1.02382

| SMILES | remaining activity at 10 µM [%] | IC50 [nM] |
| --- | --- | --- |
| O=C1Nc2ccc(-c3ccc(Cl)cc3F)cc2C(=O)N2CCN(C(=O)[C@H]3CCCN3C3CCNCC3)CC12 (stereo partly drawn) [Compound A93, 7-(4-Chloro-2-fluorophenyl)-2-((R)-1-piperidin-4-ylpyrrolidine-2-carbonyl)-1,3,4,11a-tetrahydro-2H,10H-2,4a,10-triazadibenzo[a,d]cycloheptene-5,11-dione] | 17 | – |
| O=C1Nc2ccc(-c3ccc(Cl)cc3F)cc2C(=O)N2CCN(C(=O)[C@@H]3CCCN3C3CCNCC3)CC12 (stereo partly drawn) [Compound A99, 7-(4-Chloro-2-fluorophenyl)-2-((S)-1-piperidin-4-yl-pyrrolidine-2-carbonyl)-1,3,4,11a-tetrahydro-2H,10H-2,4a,10-triazadibenzo[a,d]cycloheptene-5,11-dione] | 19 | > 1000 |
| O=C1Nc2ccc(-c3ccc(Cl)cc3F)cc2C(=O)N2CCN(C(=O)[C@@H]3CCCN3C3CCOCC3)C[C@H]12 [Compound A120, (R)-7-(4-Chloro-2-fluorophenyl)-2-[(S)-1-(tetrahydro-pyran-4-yl)pyrrolidine-2-carbonyl]-1,3,4,11a-tetra-hydro-2H,10H-2,4a,10-triazadibenzo[a,d]-cycloheptene-5,11-dione] | 8 | 100 to 1000 |
| O=C1Nc2ccc(-c3ccc(Cl)cc3)cc2C(=O)N2CCN(C(=O)COc3ccccc3)C[C@H]12 [Compound B21] | 57 | – |
| CC(C)(C)[C@H](N)C(=O)N1CCN2C(=O)c3cc(-c4ccc(Cl)cc4F)ccc3NC(=O)C2C1 (stereo partly drawn) [Compound A61, 2-((S)-2-Amino-3,3-dimethylbutyryl)-7-(4-chloro-2-fluorophenyl)-1,3,4,11a-tetrahydro-2H,10H-2,4a,10-triazadibenzo[a,d]cycloheptene-5,11-dione] | -11 | > 1000 |
| Cc1ccc(-c2ccc3c(c2)C(=O)N2CCN(C(=O)CC(C)(C)C)CC2C(=O)N3)cc1 (centres unmarked) [Compound A105, 2-(3,3-Dimethylbutyryl)-7-p-tolyl-1,3,4,11a-tetrahydro-2H,10H-2,4a,10-triaza-dibenzo[a,d]cycloheptene-5,11-dione] | 22 | > 1000 |
| CC(C)(C)[C@H](N)C(=O)N1CCN2C(=O)c3cc(-c4ccc(Cl)cc4F)ccc3NC(=O)[C@H]2C1 [Compound A65, (R)-2-((S)-2-Amino-3,3-dimethylbutyryl)-7-(4-chloro-2-fluorophenyl)-1,3,4,11a-tetrahydro-2H,10H-2,4a,10-triazadibenzo[a,d]cycloheptene-5,11-dione] | 48.5 | > 1000 |
| CC(C)(C)CC(=O)N1CCN2C(=O)c3cc(-c4ccc(Cl)cc4F)ccc3N(CC3CCNCC3)C(=O)C2C1 (centres unmarked) [Compound A147] | 62 | > 1000 |
| O=C1Nc2ccc(-c3ccc(Cl)cc3F)cc2C(=O)N2CCN(C(=O)n3ccnc3)C[C@H]12 [Compound 41, (R)-7-(4-Chloro-2-fluorophenyl)-2-(imidazole-1-carbonyl)-1,3,4,11a-tetrahydro-2H,10H-2,4a,10-triazadibenzo[a,d]cycloheptene-5,11-dione] | 48 | > 1000 |
| O=C1Nc2ccc(-c3ccc(Cl)cc3)cc2C(=O)N2CCN(C(=O)C3(c4ccccc4)CC3)CC12 (centres unmarked) [Compound A49, 7-(4-Chlorophenyl)-2-(1-phenylcyclopropane-carbonyl)-1,3,4,11a-tetrahydro-2H,10H-2,4a,10-triazadibenzo[a,d]cycloheptene-5,11-dione] | – | > 1000 |
| O=C1Nc2ccc(-c3ccccc3F)cc2C(=O)N2CCN(C(=O)c3cccs3)C[C@H]12 [Compound B23] | 76 | – |
| O=C1Nc2ccc(-c3ccc(Cl)cc3F)cc2C(=O)N2CCN(C(=O)[C@@H]3C[C@@H](O)CN3)CC12 (stereo partly drawn) [Compound A70, 7-(4-Chloro-2-fluorophenyl)-2-((2S,4R)-4-hydroxy-pyrrolidine-2-carbonyl)-1,3,4,11a-tetrahydro-2H,10H-2,4a,10-triazadibenzo[a,d]cycloheptene-5,11-dione] | 28 | > 1000 |
| CC(O)(C(=O)N1CCN2C(=O)c3cc(-c4ccc(Cl)cc4)ccc3NC(=O)C2C1)c1ccccc1 (centres unmarked) [Compound A39, 7-(4-Chlorophenyl)-2-(2-hydroxy-2-phenylpropionyl)-1,3,4,11a-tetrahydro-2H,10H-2,4a,10-triazadibenzo[a.d]cycloheptene-5,11-dione] | 22 | > 1000 |
| CC(C)(C)CC(=O)N1CCN2C(=O)c3cc(-c4ccc(Cl)nc4)ccc3NC(=O)C2C1 (centres unmarked) [Compound A128, 7-(6-Chloropyridin-3-yl)-2-(3,3-dimethylbutyryl)-1,3,4,11a-tetrahydro-2H,10H-2,4a,10-triaza-dibenzo[a,d]cycloheptene-5,11-dione] | 42 | > 1000 |
| CC(C)(C)CC(=O)N1CCN2C(=O)c3cc(-c4ccc(Cl)cc4Cl)ccc3NC(=O)C2C1 (centres unmarked) [Compound A78, 7-(2,4-Dichlorophenyl)-2-(3,3-dimethylbutyryl)-1,3,4,11a-tetrahydro-2H,10H-2,4a,10-triaza-dibenzo[a,d]cycloheptene-5,11-dione] | 16 | > 1000 |
| O=C1Nc2ccc(-c3ccc(Cl)cc3F)cc2C(=O)N2CCN(C(=O)Cc3ccccc3)CC12 (centres unmarked) [Compound A31, 7-(4-Chloro-2-fluorophenyl)-2-phenylacetyl-1,3,4,11a-tetrahydro-2H,10H-2,4a,10-triaza-dibenzo[a,d]cycloheptene-5,11-dione] | 17 | > 1000 |
| CN1CCN(C(=O)CN2C(=O)C3CN(C(=O)CC(C)(C)C)CCN3C(=O)c3cc(-c4ccc(Cl)cc4F)ccc32)CC1 (centres unmarked) [Compound A144] | 11 | > 1000 |
| CN1CCC(C)(C(=O)N2CCN3C(=O)c4cc(-c5ccc(Cl)cc5)ccc4NC(=O)C3C2)CC1 (centres unmarked) [Compound A107, 7-(4-Chlorophenyl)-2-(1,4-dimethylpiperidine-4-carbonyl)-1,3,4,11a-tetrahydro-2H,10H-2,4a,10-triazadibenzo[a,d]cycloheptene-5,11-dione] | 51 | > 1000 |
| O=C1Nc2ccc(-c3ccc(Cl)cc3F)cc2C(=O)N2CCN(C(=O)[C@@H]3CCCN3C3CCCCC3)C[C@H]12 [Compound A121, (R)-7-(4-Chloro-2-fluorophenyl)-2-((S)-1-cyclohexyl-pyrrolidine-2-carbonyl)-1,3,4,11a-tetrahydro-2H,10H-2,4a,10-triazadibenzo[a,d]cycloheptene-5,11-dione] | 32 | > 1000 |
| CC(C)(C)[C@@H](N)C(=O)N1CCN2C(=O)c3cc(-c4ccc(Cl)cc4)ccc3NC(=O)C2C1 (stereo partly drawn) [Compound A53, 2-((R)-2-Amino-3,3-dimethylbutyryl)-7-(4-chloro-phenyl)-1,3,4,11a-tetrahydro-2H,10H-2,4a,10-triazadibenzo[a,d]cycloheptene-5,11-dione] | – | > 1000 |
| CC(C)(C)CC(=O)N1CCN2C(=O)c3cc(-c4cc(Cl)cc(Cl)c4)ccc3NC(=O)C2C1 (centres unmarked) [Compound A19, 7-(3,5-Dichlorophenyl)-2-(3,3-dimethylbutyryl)-1,3,4,11a-tetrahydro-2H,10H-2,4a,10-triaza-dibenzo[a,d]cycloheptene-5,11-dione] | 65 | > 1000 |
| CN1CCC(N2C(=O)C3CN(C(=O)CC(C)(C)C)CCN3C(=O)c3cc(-c4ccc(Cl)cc4F)ccc32)CC1 (centres unmarked) [Compound A166] | 10 | > 1000 |
| O=C1Nc2ccc(-c3ccc(Cl)cc3)cc2C(=O)N2CCN(C(=O)c3c(C(F)(F)F)nc4ccccn34)CC12 (centres unmarked) [Compound A72, 7-(4-Chlorophenyl)-2-(2-trifluoromethylimidazo[1,2-a]pyridine-3-carbonyl)-1,3,4,11a-tetrahydro-2H,10H-2,4a,10-triazadibenzo[a,d]cycloheptene-5,11-dione] | 70 | > 1000 |
| CN(C)CCN1C(=O)[C@@H]2CN(C(=O)CC(C)(C)C)CCN2C(=O)c2cc(-c3ccc(Cl)cc3F)ccc21 [Compound A163] | 10 | > 1000 |
| O=C1Nc2ccc(-c3ccccc3F)cc2C(=O)N2CCN(C(=O)C3CCCC3)C[C@@H]12 [Compound B10] | 76 | – |
